Assay: method code SF-AS, from DOI: 10.1021/jm00089a008, PMID: 1317921
Details: pH 7.4

Structure (SMILES) | logD
CC(C)N(/C=N/c1ccn([C@H]2CC[C@@H](CO)O2)c(=O)n1)C(C)C | 0.72
O=c1nc(/N=C/N2CCOCC2)ccn1C1CC(F)C(CO)O1 (stereo not drawn) | -0.68
CC(C)N(/C=N/c1ccn([C@H]2C[C@H](F)[C@@H](CO)O2)c(=O)n1)C(C)C | 1.14
